“Also recorded” adds a separate entry of the source.
How the values were obtained:
[1] = system: a variety of nematode species, including Caenorhabditis elegans and Meloidogyne incognita; conditions: 100 ppm; cited from earlier work
H. megidis = conditions: concentrations up to 200 ug/ml; cited from earlier work
[2] = system: Heterorhabditis bacteriophora; experiment: Toxicity test, infective juveniles (J3) of Heterorhabditis bacteriophora; type: in vivo; conditions: 200 ppm, up to 168 hrs of exposure
Method: Toxicity tests were conducted using infective juveniles (J3) of H. bacteriophora collected from infested Galleria mellonella larvae. Test solution (280 ul) was placed in a well of a 96-well plate and 20 ul aqueous solution containing nematodes was added. The nematodes in 20 ul solution ranged from 15 to 21 (n=10). Plates were sealed with Parafilm™ and incubated at room temperature. Similar tests conducted with 0.2% DMSO alone served as controls. Stock solution prepared in DMSO was added to wells to achieve 200 ppm. Nematode mortality was checked at 24, 48, 72, 120, and 168 hr after incubation. Nematodes that were motionless for 30 seconds when observed under stereo microscope were considered dead and included in mortality counts. Each concentration was replicated five times.
This broad cross resistance supports a role for AT blockers in the action of these compounds.

[3] = system: voltage-gated chloride channels; conditions: cited from earlier work

In the case of `CC(C)c1c(O)cc(/C=C/c2ccccc2)cc1O` [DST], the 24 hr lethality [1] is given as 100% and the “sensitivity to DST” value (H. megidis) is given as “completely insensitive”.
In the case of `CCOP(=S)(OCC)Oc1nc(Cl)c(Cl)cc1Cl` [chlorpyrifos], the “toxicity (FIG. 4)” value [2] is reported as “fully susceptible; also recorded: quite active in killing”.
In the case of `Cl[C@H]1[C@H](Cl)[C@@H](Cl)[C@@H](Cl)[C@H](Cl)[C@H]1Cl` [lindane], the “potency as inhibitor of [35S]TBPS binding, Torpedo membranes versus rat brain” value [3] is listed as “about 4 fold”.

— patent publication US20080103205A1, “Pesticidal compositions and methods of use” (priority 2006, published 2008)
